US8946436B2, “Oxazolidinone compounds and their uses in preparation of antibiotics” (Sichuan Gooddoctor Pharmaceutical Group Co., Ltd., priority 2011, dated 2015)
In brackets after ≈: the same amount, converted by molar mass. Like-named read-outs stand apart in the source and are kept apart here.

Legend:
S. pneumoniae = assay: In vitro antibacterial activity (MIC), S. pneumoniae; type: cell-based; conditions: Streptococcus pneumoniae
Experimental: (§1) The test strain was inoculated into the liquid medium and cultured at 37° C. for 16-18 h. The culture liquid and MH medium were put into two blank wells of a 96-well plate, respectively. Then, the absorptions thereof were measured by a Microplate reader. The difference between the absorption values of the culture liquid and MH medium is the adsorption of the bacteria. The concentration of the culture liquid can be calculated according to the formula of 1OD=50 million CFU/mL. The culture liquid was diluted with the MH bouillon culture medium to 5000 CFU/mL for further use.
(§2) Compounds 12a, 13 and 14 were dissolved in DMSO to 1 mg/mL, and then filtered with a 0.22 μm filter to obtain the compound solutions. And then they were gradually diluted to a desired concentration (10× final concentration) with the liquid medium, so as to obtain a series of dilutions. The final concentration grade of the dilutions of each tested compound consists of 14 concentrations, which includes: 0.03125 μg/mL, […], 0.125 μg/mL, 0.25 μg/mL, […], 1 μg/mL, 2 μg/mL, 4 μg/mL, 8 μg/mL, 16 μg/mL, 32 μg/mL, 64 μg/mL, 128 μg/mL and 256 μg/mL.
(§3) 10 μL of each of the compound dilutions above was added into a well of a 96-well plate. 90 μL of the culture liquid (5000 CFU/mL) was added into each of the wells, respectively, mixed with the dilutions to render the tested compound concentration to the final concentration. The resulted mixture was incubated at 37° C. for 16-18 h, and then the OD630 thereof was measured. A culture liquid free of the tested compounds is used as a blank control, and three parallel tests with the same concentration of each compound were performed. The minimum inhibitory concentration (MIC) of each compound on the standard strain of Staphylococcus Aureus and other test strains was determined. Specifically, among the culture liquid contained in the wells of the micro-plate, the first three lowest concentrations under which growth of the test strains could be observed were chose for further evaluation of the MIC. A culture liquid free of tested compounds was used as a blank control. Each of the culture liquids was homogenized independently, and then was diluted with a sterile saline. Each of the diluted culture liquids was plated onto a MH bouillon plate and incubated at 37° C. for 20 h in incubator. After the incubation, the number of the colonies on each plate was counted. As compared with the blank control group, the lowest concentration of each of the test compound groups, at which 80% reduction in the colony number of the strains was achieved, was recorded as the MIC.

HEK-293 = assay: Cytotoxicity experiment (MTT), HEK-293; type: cell-based; conditions: Homo sapiens, HEK293, 48 h, HEK-293 normal cells, read-out: Inhibition ratio
Experimental: (§4) (1) Inoculating cells: Experimental cells in the growth of logarithmic phase were collected and suspended. The cell concentration of the suspension was adjusted so that they could be inoculated into the wells of 96-well micro plate at a density between 10^3-10^4 cells per well (200 μl per well). (2) Culturing cells: The cells were cultured at normal conditions for 3 days and then exposed to 50 uM compounds for test. (3) Coloring reaction: At 24 h, 48 h and 72 h after the cells being exposed to the compounds for test, 200 μl culture medium containing 20 μl MTT solution (5 mg/ml) was added into each well, and the well was further incubated at 37° C. for 2 hours to terminate the incubation. After the incubation, the supernatants were removed from the wells. In the event there were suspended cells in the wells, centrifugation should be performed before removal of supernatant from the wells. After the removal, 150 μl DMSO was added to each well and mixed thoroughly by agitation for 10 mins to fully dissolve crystals. (4) Ascertainment of colorimetry: The absorbance value at 490 nm of each well was determined by Enzyme-linked immunosorbent Monitor. The growth curve of the experimental cells was plotted by taking time as x-coordinate and absorbance value as y-coordinate. In addition, an inhibition ratio could be calculated in accordance with the following formula: Inhibition ratio=(absorbance value of control group-absorbance value of administering group)/absorbance value of control group×100%.

S. aureus = assay: In vitro antibacterial activity (MIC), S. aureus; type: cell-based, Staphylococcus Aureus; conditions: Staphylococcus aureus
Experimental: Strains: strain ATCC25923 is available from the American Type Culture Collection, and is used as a standard strain of Staphylococcus Aureus;
Liquid medium: MH bouillon culture medium, a product of BD Company, United States of American;
Tested Compounds: compounds 12a, 13 and 14 prepared according to the methods above, and Linezolid purchased from Pfizer.
as §1, §2, §3

E. faecalis = assay: In vitro antibacterial activity (MIC), E. faecalis; type: cell-based; conditions: Enterococcus faecalis
Experimental: as §1, §2, §3

L-02 = assay: Cytotoxicity experiment (MTT), L-02; type: cell-based; conditions: Homo sapiens, L02, 48 h, L-02 normal cells, read-out: Inhibition ratio
Experimental: as §4

S. agalactiae = assay: In vitro antibacterial activity (MIC), S. agalactiae; type: cell-based; conditions: Streptococcus agalactiae
Experimental: as §1, §2, §3

Row | SMILES | MIC (S. pneumoniae) | cytotoxicity at 50 µM (HEK-293) | MIC (S. aureus) | MIC (E. faecalis) | cytotoxicity at 50 µM (L-02) | MIC (S. agalactiae) | melting point | MIC (S. pneumoniae; S. pneumoniae (10 strains), read-out: MIC) | MIC (S. aureus; S. aureus (12 strains), read-out: MIC) | MIC (E. faecalis; E. faecalis (7 strains), read-out: MIC) | MIC (S. agalactiae; S. agalactiae (5 strains), read-out: MIC)
1 | CC(=O)NC[C@H]1CN(c2ccc(-n3cc(-c4ccc(Cl)cc4)cn3)c(F)c2)C(=O)O1 [Compound 13d, (S)-N-((3-(3-fluoro-4-(4-(4-chlorophenyl)-1H-pyrazol-1-yl)phenyl)-2-oxooxazolidin-5-yl)methyl)acetamide] | 0.25 to 4 µg/mL (≈ 0.583 to 9.33 µM) | 21% | 1 to 4 µg/mL (≈ 2.33 to 9.33 µM) | 0.5 to 8 µg/mL (≈ 1.17 to 18.7 µM) | 39.3% | 0.5 to 8 µg/mL (≈ 1.17 to 18.7 µM) | 237.5 to 238.2 °C | – | – | – | –
2 | CC(=O)NC[C@H]1CN(c2ccc(-n3nccc3-c3ccccn3)c(F)c2)C(=O)O1 [Compound 14e, (S)-N-((3-(3-fluoro-4-(5-(pyridin-2-yl)-1H-pyrazol-1-yl)phenyl)-2-oxooxazolidin-5-yl)methyl)acetamide] | – | 47% | – | – | 39% | – | 79.9 to 82.1 °C | 0.125 to 16 µg/mL (≈ 0.316 to 40.5 µM) | 0.5 to 16 µg/mL (≈ 1.26 to 40.5 µM) | 0.25 to 16 µg/mL (≈ 0.632 to 40.5 µM) | 0.25 to 16 µg/mL (≈ 0.632 to 40.5 µM)
